The text below walks through data of ChEMBL document CHEMBL1152196, “Benzimidazole- and benzoxazole-based inhibitors of Rho kinase” (Bioorg Med Chem Lett, 2008).

Data set [1] has as its target T1, Rho-associated protein kinase 2 (Homo sapiens, UniProt O75116). Nature of the data set: Inhibition of ROCK2.
A short description of data set [2]: Inhibition of PKA.
In data set [3] the target is T1, Rho-associated protein kinase 2. Nature of the data set: Inhibition of ROCK2 assessed as myosin light chain phosphorylation by cell-based assay.
Data set [4] deals with RAC-alpha serine/threonine-protein kinase (Homo sapiens, UniProt P31749). Description: Inhibition of Akt1.
Sequence of RAC-alpha serine/threonine-protein kinase (P31749 whole entry): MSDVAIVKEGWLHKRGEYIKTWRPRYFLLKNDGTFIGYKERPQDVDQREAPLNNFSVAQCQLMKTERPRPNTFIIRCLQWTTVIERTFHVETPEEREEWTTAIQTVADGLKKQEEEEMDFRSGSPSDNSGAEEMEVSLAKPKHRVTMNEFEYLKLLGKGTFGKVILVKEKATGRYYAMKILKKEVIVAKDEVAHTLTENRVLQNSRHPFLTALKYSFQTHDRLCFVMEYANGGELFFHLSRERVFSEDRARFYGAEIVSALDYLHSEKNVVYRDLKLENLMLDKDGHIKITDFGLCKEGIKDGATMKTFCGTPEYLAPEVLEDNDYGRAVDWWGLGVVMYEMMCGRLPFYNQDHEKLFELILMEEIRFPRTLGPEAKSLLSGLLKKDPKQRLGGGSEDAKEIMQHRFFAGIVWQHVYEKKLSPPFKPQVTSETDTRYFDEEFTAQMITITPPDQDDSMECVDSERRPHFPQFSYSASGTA
The nature of data set [5]: Inhibition of MRCK.
Data set [6] is described as follows: Inhibition of p38 kinase.
Data set [7] concerns the target Mitogen-activated protein kinase 8 (Homo sapiens, UniProt P45983). Nature of the data set: Inhibition of JNK1.
Data set [8] has as its target Mitogen-activated protein kinase 10 (Homo sapiens, UniProt P53779). Description: Inhibition of JNK3.
The nature of data set [9]: Clearance in rat at 1 mg/kg, iv or 2 mg/kg, po. It counts as ADME, organism-based. To be noted: in vivo.
Data set [10] is described as follows: Volume of distribution at steady state in rat at 1 mg/kg, iv or 2 mg/kg, po. The data set is classed as ADME, organism-based. The settings on record: in vivo, read-out: Vdss.
The nature of data set [11]: Half life in rat at 1 mg/kg, iv or 2 mg/kg, po. It counts as ADME, organism-based. To be noted: in vivo.
Data set [12] is described as follows: AUC in rat at 2 mg/kg, po. The data set is classed as ADME, organism-based. Further details: dose 2 mg/kg, route oral. To be noted: plasma.
A short description of data set [13]: Cmax in rat at 2 mg/kg, po. Further details: dose 2 mg/kg, route oral. The data set is classed as ADME, organism-based. The settings on record: in vivo.
Data set [14] can be described thus: Oral bioavailability in rat at 2 mg/kg. It counts as ADME, organism-based. To be noted: in vivo.
The nature of data set [15]: Metabolic stability in human liver microsomes. The data set is classed as ADME, Microsome. Background: Liver microsomes are vesicles of endoplasmic reticulum, rich in cytochrome P450 enzymes.
The nature of data set [16]: Selectivity for ROCK2 over PKA.
In the next data set the target is CYP2C9 (Homo sapiens, UniProt P11712). Description: Inhibition of CYP2C9 at 10 uM. It counts as ADME.
Sequence of CYP2C9 (P11712 whole entry): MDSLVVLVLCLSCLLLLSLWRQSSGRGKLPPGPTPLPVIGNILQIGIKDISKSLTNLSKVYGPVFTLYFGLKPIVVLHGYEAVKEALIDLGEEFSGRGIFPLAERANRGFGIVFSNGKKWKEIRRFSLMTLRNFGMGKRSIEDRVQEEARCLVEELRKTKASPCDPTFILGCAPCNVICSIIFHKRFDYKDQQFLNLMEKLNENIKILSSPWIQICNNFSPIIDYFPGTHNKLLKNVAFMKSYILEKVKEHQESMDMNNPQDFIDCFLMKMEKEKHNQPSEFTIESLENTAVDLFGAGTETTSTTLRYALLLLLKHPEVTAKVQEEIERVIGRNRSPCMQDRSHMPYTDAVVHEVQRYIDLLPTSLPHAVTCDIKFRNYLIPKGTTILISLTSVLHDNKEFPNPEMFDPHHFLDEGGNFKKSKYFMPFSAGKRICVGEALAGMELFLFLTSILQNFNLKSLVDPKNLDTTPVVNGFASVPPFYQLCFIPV
Another data set deals with CYP2D6 (Homo sapiens, UniProt P10635). Nature of the data set: Inhibition of CYP2D6 at 10 uM. The data set is classed as ADME.
Sequence of CYP2D6 (P10635 whole entry): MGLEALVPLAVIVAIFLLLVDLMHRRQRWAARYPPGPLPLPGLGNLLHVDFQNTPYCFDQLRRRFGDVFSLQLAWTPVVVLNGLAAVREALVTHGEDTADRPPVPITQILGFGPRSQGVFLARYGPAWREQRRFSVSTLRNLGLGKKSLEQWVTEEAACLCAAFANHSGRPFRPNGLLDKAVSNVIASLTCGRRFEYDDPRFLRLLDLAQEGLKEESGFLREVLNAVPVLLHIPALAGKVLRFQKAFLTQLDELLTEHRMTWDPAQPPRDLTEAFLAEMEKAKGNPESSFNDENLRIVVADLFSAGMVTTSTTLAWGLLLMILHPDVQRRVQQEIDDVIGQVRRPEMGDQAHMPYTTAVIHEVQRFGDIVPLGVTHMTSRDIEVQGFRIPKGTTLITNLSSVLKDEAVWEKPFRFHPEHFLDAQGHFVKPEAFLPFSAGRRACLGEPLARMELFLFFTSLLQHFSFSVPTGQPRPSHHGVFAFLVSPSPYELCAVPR
The next data set has as its target CYP3A4 (Homo sapiens, UniProt P08684). Nature of the data set: Inhibition of CYP3A4 at 10 uM. It counts as ADME.
The next data set addresses T2, CYP1A2 (Homo sapiens, UniProt P05177).
T2 sequence (P05177 whole entry): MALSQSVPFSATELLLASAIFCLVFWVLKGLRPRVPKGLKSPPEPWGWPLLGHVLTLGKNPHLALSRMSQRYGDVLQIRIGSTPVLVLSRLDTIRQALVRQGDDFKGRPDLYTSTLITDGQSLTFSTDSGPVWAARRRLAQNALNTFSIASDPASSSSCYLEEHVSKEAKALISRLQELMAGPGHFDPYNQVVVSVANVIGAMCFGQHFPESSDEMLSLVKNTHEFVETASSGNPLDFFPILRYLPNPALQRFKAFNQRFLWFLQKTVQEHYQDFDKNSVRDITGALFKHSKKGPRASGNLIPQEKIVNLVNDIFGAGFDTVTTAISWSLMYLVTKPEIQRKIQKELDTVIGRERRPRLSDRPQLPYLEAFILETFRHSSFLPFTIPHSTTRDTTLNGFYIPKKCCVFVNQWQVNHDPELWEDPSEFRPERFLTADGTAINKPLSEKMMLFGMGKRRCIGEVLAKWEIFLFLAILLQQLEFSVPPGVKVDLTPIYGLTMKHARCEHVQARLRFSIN
Description: Inhibition of CYP1A2 at 10 uM. It counts as ADME.

Sequence of CYP3A4 (P08684 whole entry): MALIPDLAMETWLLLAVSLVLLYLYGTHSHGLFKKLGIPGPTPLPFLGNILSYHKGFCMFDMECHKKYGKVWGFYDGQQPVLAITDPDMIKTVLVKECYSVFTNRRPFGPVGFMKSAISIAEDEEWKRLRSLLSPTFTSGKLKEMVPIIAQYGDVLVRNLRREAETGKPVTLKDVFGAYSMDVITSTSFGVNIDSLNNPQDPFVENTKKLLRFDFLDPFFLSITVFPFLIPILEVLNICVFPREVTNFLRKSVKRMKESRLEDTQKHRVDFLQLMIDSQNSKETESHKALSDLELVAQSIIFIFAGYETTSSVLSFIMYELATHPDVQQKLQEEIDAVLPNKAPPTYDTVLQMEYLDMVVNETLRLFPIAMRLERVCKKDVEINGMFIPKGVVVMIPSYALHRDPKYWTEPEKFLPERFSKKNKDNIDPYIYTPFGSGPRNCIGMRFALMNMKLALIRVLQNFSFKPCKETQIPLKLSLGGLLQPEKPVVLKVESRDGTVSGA
T1 sequence (O75116 whole entry): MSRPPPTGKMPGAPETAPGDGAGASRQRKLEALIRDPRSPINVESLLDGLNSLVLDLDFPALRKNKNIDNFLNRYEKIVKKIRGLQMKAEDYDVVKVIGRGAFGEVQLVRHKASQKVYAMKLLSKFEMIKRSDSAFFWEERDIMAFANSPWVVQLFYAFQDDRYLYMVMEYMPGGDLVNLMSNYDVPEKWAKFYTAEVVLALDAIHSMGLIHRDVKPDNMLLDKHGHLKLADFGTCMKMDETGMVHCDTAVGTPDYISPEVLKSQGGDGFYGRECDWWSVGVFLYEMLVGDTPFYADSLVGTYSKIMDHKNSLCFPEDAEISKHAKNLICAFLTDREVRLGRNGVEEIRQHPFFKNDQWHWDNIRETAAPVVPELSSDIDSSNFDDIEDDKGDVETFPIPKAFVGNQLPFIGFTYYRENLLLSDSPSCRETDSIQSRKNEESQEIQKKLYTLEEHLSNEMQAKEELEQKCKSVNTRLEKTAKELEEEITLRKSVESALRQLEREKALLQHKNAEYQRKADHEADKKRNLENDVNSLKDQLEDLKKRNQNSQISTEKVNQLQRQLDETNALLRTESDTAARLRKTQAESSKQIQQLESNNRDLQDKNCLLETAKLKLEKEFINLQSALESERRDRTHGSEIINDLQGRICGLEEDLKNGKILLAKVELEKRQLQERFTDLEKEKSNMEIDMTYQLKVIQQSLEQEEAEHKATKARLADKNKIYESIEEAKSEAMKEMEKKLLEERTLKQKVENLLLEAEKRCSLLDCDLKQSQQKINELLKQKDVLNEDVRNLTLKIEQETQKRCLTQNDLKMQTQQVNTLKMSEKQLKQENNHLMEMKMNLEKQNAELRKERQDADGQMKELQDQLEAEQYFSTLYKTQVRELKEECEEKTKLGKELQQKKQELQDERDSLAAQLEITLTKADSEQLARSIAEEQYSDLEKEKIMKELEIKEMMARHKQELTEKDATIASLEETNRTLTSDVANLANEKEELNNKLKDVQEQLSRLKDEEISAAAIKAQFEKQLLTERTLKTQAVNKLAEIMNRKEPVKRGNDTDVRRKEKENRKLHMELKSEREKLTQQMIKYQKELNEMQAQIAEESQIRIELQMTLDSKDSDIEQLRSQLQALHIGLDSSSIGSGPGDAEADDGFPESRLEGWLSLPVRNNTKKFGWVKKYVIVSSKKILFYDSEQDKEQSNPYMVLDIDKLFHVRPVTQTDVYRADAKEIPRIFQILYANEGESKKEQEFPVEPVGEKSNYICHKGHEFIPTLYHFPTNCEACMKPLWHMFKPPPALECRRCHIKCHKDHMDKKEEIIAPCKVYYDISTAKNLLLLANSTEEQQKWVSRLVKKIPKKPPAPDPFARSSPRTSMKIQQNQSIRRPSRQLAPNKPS
Sequence of Mitogen-activated protein kinase 10 (P53779 whole entry): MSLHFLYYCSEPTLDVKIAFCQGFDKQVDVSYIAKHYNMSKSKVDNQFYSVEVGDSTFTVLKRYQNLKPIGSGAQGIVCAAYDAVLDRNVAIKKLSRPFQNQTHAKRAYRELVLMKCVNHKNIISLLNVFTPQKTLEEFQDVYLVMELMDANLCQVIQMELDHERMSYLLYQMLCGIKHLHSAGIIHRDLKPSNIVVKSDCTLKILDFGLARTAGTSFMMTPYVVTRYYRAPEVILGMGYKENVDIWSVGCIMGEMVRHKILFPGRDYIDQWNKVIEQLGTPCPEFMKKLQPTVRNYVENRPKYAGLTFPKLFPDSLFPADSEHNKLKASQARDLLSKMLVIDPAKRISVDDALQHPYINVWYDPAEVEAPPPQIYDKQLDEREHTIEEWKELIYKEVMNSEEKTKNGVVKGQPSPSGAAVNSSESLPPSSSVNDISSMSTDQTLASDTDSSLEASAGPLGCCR
Sequence of Mitogen-activated protein kinase 8 (P45983 whole entry): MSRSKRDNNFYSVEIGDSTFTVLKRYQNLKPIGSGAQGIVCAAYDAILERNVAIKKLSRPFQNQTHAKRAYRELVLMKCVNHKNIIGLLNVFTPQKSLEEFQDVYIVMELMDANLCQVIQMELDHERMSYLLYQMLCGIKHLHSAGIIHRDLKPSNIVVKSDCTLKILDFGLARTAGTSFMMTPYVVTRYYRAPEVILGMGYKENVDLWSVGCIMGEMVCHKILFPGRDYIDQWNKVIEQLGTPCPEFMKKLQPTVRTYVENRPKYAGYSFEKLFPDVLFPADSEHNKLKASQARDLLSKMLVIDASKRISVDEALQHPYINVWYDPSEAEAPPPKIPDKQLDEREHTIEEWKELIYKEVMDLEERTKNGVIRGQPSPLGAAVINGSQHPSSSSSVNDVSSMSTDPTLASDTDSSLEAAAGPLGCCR

Turning to `COc1ccc2c(c1)CC(c1nc3c(F)cc(-c4ccnc(N)n4)cc3[nH]1)CO2` (stereo unspecified), the IC50 (in general, the concentration that gives 50% inhibition) in [1] is under 0.001 µM; in data set [2], 0.397 µM; in data set [3] it was under 0.006 µM; in data set [4] it was 5 µM; in data set [5], 1.09 µM; in [6] it was over 20 µM. For the same compound, the IC50 was determined as 14.1 µM in data set [7] and 16.8 µM in data set [8]. This compound registered a clearance in data set [9] of 12 mL/min/kg. In addition, the Vd in data set [10] is 0.63 L/kg. Besides, the half-life – broadly, the time needed for the level to fall by half in the phase considered – in data set [11] is 84 min. In data set [12], the AUC (in general, the area under the concentration-time curve, a measure of exposure) worked out at 2.2 µM·h. Also, in data set [13], the Cmax (commonly the maximum level reached in the sampled fluid or tissue) was 740 nM. Also, the bioavailability (usually dose-corrected exposure relative to a reference, in per cent) in data set [14] was determined as 29%.

In the case of `CC(C)Oc1ccc2c(c1)CC(c1nc3ccc(-c4ccnc(N)n4)cc3[nH]1)CO2` (stereo unspecified), the IC50 in [1] turned out to be 0.296 µM; in [2], 6.38 µM.

As to `Nc1nccc(-c2ccc3nc(C4COc5ccc(C(=O)NCc6ccccc6)cc5C4)[nH]c3c2)n1` (stereo unspecified), the IC50 in data set [1] was under 0.001 µM; in data set [2], 0.075 µM; in data set [3], 0.023 µM. The compound also had a half-life in data set [15] of 25 min.

As for `COC(=O)c1ccc2c(c1)CC(c1nc3ccc(-c4ccnc(N)n4)cc3[nH]1)CO2` (stereo unspecified), the figures for the IC50 in data set [1], in data set [2] and in data set [3] were 0.006 µM, 10.2 µM and 0.271 µM, respectively. In data set [15], the half-life stood at 18 min.

Regarding `COc1ccc2c(c1)CC(c1nc3ccc(-c4ccnc(N)n4)cc3[nH]1)CO2` (stereo unspecified), the results for the concentration for half-maximal inhibition (IC50) in data set [2] and in [3] were 0.602 µM and 0.099 µM, respectively. The results for the half-life in [15] and in data set [11] were 28 min and 138 min, respectively. Also, the clearance in data set [9] was 17 mL/min/kg. Moreover, the Vd in data set [10] came to 0.89 L/kg. Besides, the AUC in data set [12] stood at 1.9 µM·h. Besides, in data set [13], the Cmax worked out at 900 nM. The compound also registered a bioavailability in [14] of 35%. Moreover, the fold change (FC) in [16] was 240.

With `c1ccc2c(c1)CC(c1nc3ccc(-c4cn[nH]c4)cc3[nH]1)CO2` (stereo unspecified), the half-maximal inhibitory concentration (IC50) turned out to be 0.027 µM in [1], 0.168 µM in data set [2] and 0.086 µM in [3]. Moreover, in [15], the half-life was found to be 20 min. Also, the inhibition (usually the relative decrease from the control value, in per cent) at 10 µM against CYP2C9 was found to be 84%; against CYP2D6, 84%; against CYP3A4, 47%; at CYP1A2, 51%.

Regarding `Nc1nccc(-c2ccc3nc(C4COc5ccc(F)cc5C4)[nH]c3c2)n1` (stereo unspecified), the IC50 in data set [1] came out at 0.006 µM; in data set [2], 0.27 µM. In addition, the half-life in data set [15] came out at 45 min.

Turning to `Nc1nccc(-c2ccc3nc(C4COc5ccccc5C4)oc3c2)n1` (stereo unspecified), the half-inhibitory concentration (IC50) was 0.027 µM in data set [1] and 1.34 µM in data set [2]. Further, the half-life in data set [15] was 57 min. The inhibition at 10 µM against CYP2C9 was -8%; at CYP2D6, -4%; against CYP3A4, -6%; at CYP1A2, 0%.

For the compound `Cc1[nH]ncc1-c1ccc2nc(C3COc4ccccc4C3)[nH]c2c1` (stereo unspecified), the IC50 in data set [1] was found to be 0.009 µM; in data set [2], 0.122 µM. The compound further registered a half-life in data set [15] of 30 min.

Regarding `c1ccc2c(c1)CC(c1nc3ccc(-c4cn[nH]c4)cc3o1)CO2` (stereo unspecified), the IC50 in data set [1] came out at 0.021 µM; in data set [2], 1.21 µM; in data set [3], 0.33 µM. The half-life in data set [15] worked out at 40 min. The inhibition at 10 µM on CYP2C9 was found to be 80%; against CYP2D6, 41%; on CYP3A4 it was 15%; against CYP1A2 it was 27%.

As to `Nc1nccc(-c2ccc3nc(C4COc5ccccc5C4)[nH]c3c2)n1` (stereo unspecified), the IC50 in data set [1] was found to be 0.008 µM; in [2] it was 0.198 µM; in data set [3] it was 0.066 µM. In addition, the half-life in [15] was found to be 44 min. Also, the inhibition at 10 µM against CYP2C9 was 13%; at CYP2D6, 15%; against CYP3A4, -3%; against CYP1A2 it was 31%.

For `c1ccc2c(c1)CC(c1nc3ccc(-c4ccncc4)cc3[nH]1)CO2` (stereo unspecified), the IC50 was 0.002 µM in data set [1], 0.317 µM in data set [2] and under 0.006 µM in data set [3]. The same compound showed a half-life in [15] of 29 min. The inhibition at 10 µM was 95% against CYP2C9, 92% against CYP2D6, 96% against CYP3A4 and 90% against CYP1A2.

Regarding `Nc1nccc(-c2ccc3nc(C4COc5ccc(F)cc5C4)oc3c2)n1` (stereo unspecified), the 50% inhibitory concentration (IC50) in [1] is 0.015 µM; in [2], 2.91 µM; in data set [3] it was 0.028 µM. This compound also showed a half-life in [15] of 91 min.

Take `Cc1ccc2c(c1)CC(c1nc3ccc(-c4ccnc(N)n4)cc3o1)CO2` (stereo unspecified): the IC50 was 0.078 µM in data set [1] and 6.39 µM in data set [2]. This compound also had a half-life in data set [15] of 25 min.

On to `COC(=O)c1ccc2c(c1)CC(c1nc3ccc(-c4ccnc(N)n4)cc3o1)CO2` (stereo unspecified), for which, in data set [1], the IC50 amounted to 0.024 µM.

As to `Nc1nccc(-c2ccc3nc(C4COc5ccc(C(=O)NC6CC6)cc5C4)[nH]c3c2)n1` (stereo unspecified), the figures for the IC50 in data set [1], in data set [2] and in data set [3] were under 0.001 µM, 0.669 µM and 0.212 µM, respectively. In data set [15], this compound displayed a half-life of 79 min.

With `Cc1[nH]ncc1-c1ccc2nc(C3COc4ccccc4C3)oc2c1` (stereo unspecified), the IC50 in data set [1] turned out to be 0.009 µM; in data set [2] it was 0.778 µM; in data set [3], 0.533 µM. Further, the half-life in [15] came to 70 min.

In data set [1], `CC(C)Oc1ccc2c(c1)CC(c1nc3ccc(-c4ccnc(N)n4)cc3o1)CO2` (stereo unspecified) came in with an IC50 of 0.294 µM.

Turning to `COc1ccc2c(c1)CC(c1nc3ccc(-c4ccnc(N)n4)cc3o1)CO2` (stereo unspecified), the results for the IC50 in [1] and in [3] were 0.002 µM and 0.046 µM, respectively. Moreover, the half-life in [15] is 34 min; in data set [11] it was 156 min. The compound also displayed a clearance in data set [9] of 8.4 mL/min/kg. For the same compound, the Vd in [10] amounted to 1.6 L/kg. In data set [12], this compound showed an AUC of 6.6 µM·h. In addition, in [13], the highest level (Cmax) was 970 nM. In [14], this compound yielded a bioavailability of 63%. Moreover, in data set [16], the fold change (FC) worked out at 950.
